Assay results as given in ChEMBL document CHEMBL1155854, “Conformationally constrained farnesoid X receptor (FXR) agonists: Naphthoic acid-based analogs of GW 4064” (Bioorg Med Chem Lett, 2008).
Values after ≈ are worked out from the molar mass of the structure shown. Active and inactive are the calls of the source. The rule behind the calls is not given here.

Experiments:
[1] = Solubility in fasted state-simulated intestinal fluid at pH 6.5; format: physicochemical; details: simulated gi fluid
[2] = Clearance in iv dosed mouse; format: ADME, organism-based; details: in vivo
[3] = Half life in iv dosed cynomolgus monkey; format: ADME, organism-based, Macaca fascicularis; details: in vivo
Rattus norvegicus [4] = assay: Reduction of serum aspartate aminotransferase level in alpha-naphthyl-isothiocyanate-induced rat acute cholestasis model at 100 to 300 mg/kg, po bid for 4 days dosed before 2 days induction by alpha-naphthyl-isothiocyanate; format: functional, organism-based
Rattus norvegicus [5] = assay: Reduction of serum bile acids level in alpha-naphthyl-isothiocyanate-induced rat acute cholestasis model at 100 to 300 mg/kg, po bid for 4 days dosed before 2 days induction by alpha-naphthyl-isothiocyanate; format: functional, organism-based

CC(C)c1onc(-c2c(Cl)cccc2Cl)c1COc1ccc(-c2ccc3c(C(=O)O)cccc3c2)cc1
solubility [1]: 1 µg/mL (≈ 1.88 µM)
clearance [2]: 7 mL/min/kg
half-life [3]: 1.5 h
Activity (Rattus norvegicus [4]): Active
Activity (Rattus norvegicus [5]): Active
